Laboratory results: patent publication US7476655B2, “Materials and methods for regulating blood flow” (University of Florida Research Foundation, Inc., priority 2005, dated 2009)

Assays:
cGMP-specific PDE = cGMP-specific PDE activity in PAEC (hydrolysis of 3H-cGMP in supernatant); format: cell-based; conditions: 10 μM, 1 hr at 37° C., compared to control (FIG. 3)
Experimental: The synthetic peptides were evaluated to asses any association with modulation of cGMP-specific PDE activity in PAEC.
Cell monolayers were incubated in RPMI 1640 medium with or without (control) the presence of 10 μM each of P3, P4, P6 or Zaprinast for 1 hr at 37° C. After incubation, cells were washed, homogenized, and supernatant were collected by centrifugation at 15,000×g for 15 min at 4° C. PDE activity in the supernatant were measured by monitoring hydrolysis of 3H-cGMP as previously described (16).

eNOS = assay: catalytic activity of eNOS in cultured pulmonary artery endothelial cells ([3H]-citrulline formation from [3H]-L-arginine); format: cell-based; conditions: PAEC monolayers, varying concentrations, 37° C., 1 hr, compared to control (FIG. 2)
Experimental: The effects of the synthetic peptides (P3, P4, and P6) of the subject invention on the catalytic activity of eNOS were examined using a cultured pulmonary artery endothelial cell (PAEC) model.
PAEC monolayers were incubated in RPMI 1640 medium with or without (control) the presence of varying concentrations of P3, P4, or P6 at 37° C. for 1 hr. After incubation, the catalytic activity of eNOS was determined as previously described by monitoring formation of [3H]-citrulline from [3H]-L-arginine (Chen, S., J. M. Patel and E. R. Block ER (2000) “Angiotensin IV-mediated pulmonary artery vasorelaxation is due to endothelial intracellular calcium release” Am. J. Physiol. Lung Cell Mol. Physiol. 279:L849-L856; and Patel, J. M., Y. D. Li, J. L. Zhang et al. (1999) “Increased expression of calreticulin is linked to Ang-IV-mediated activation of lung endothelial NOS” Am. J. Physiol Lung Cell Mol. Physiol. 277:L794-L801).

hypoxic mice lungs = assay: vasodilator response in excised hypoxic mouse lungs; parameters: species or system C57BL/6J mice; conditions: 15 μM, with or without L-NAME 100 μM (FIG. 4)
Experimental: Specific pathogen-free female C57BL/6J mice (30-35 g body weight) were anesthetized with pentobarbital (60 mg/kg, ip), and the lungs were excised from the thorax, ventilated with air (control) or with 0% oxygen for 1 hour at 60 breaths/min with a SAR-830 series small animal ventilator at a tidal volume of 0.6-0.8 ml/100 g body weight. After development of hypoxic vasoconstriction, vasodilator response was monitored by addition of 15 μM each of P3, P4, P6 or zaprinast with or without the presence of nitric oxide synthase inhibitor (L-NAME, 100 μM). The vasodilatory response was continuously monitored as previously described (Hu et al. (2004) Am. J. Physiol. Lung Cell Mol. Physiol. 286:[…]-[…]).

hypoxic lungs [1] = assay: in situ lung perfusion, pulmonary arterial pressure, rat model of hypoxic pulmonary hypertension; format: in vivo, Sprague Dawley rats; conditions: for pulmonary arterial pressure (PAP): infusion of 20 μM (FIG. 6)
Experimental: (§1) Specific pathogen-free Sprague Dawley rats (200-250 g body weight) were anesthetized with pentobarbital (60 mg/kg, ip). After confirmation of deep anesthesia, the trachea was cannulated with an 18-G blunt-tipped catheter and ventilated (SAR-830/p small animal ventilator, CWE, Ardmoore, Pa.) at a tidal volume of 2.5 ml/min with warm humidified 21% O2/5% CO2/74% N2 at 60 breaths/min with peak inspiratory and expiratory pressures of 9 cm and 3 cm H2O, respectively. A thoracotomy was performed and 100 units heparin injected into the right ventricle (RV). PE-90 polyethylene tubing connected to a Cook Double Lumen Central Venous Catheter (Cook Critical Care, Bloomington, Ind.) was placed in the left atrium through the left vetricle and tied in place. After placement of another PE-90 polyethylene tube connected with a double lumen catheter in the main pulmonary artery (PA), the lung were ventilated with 21% O2/5% CO2/74% N2 (normoxic) at constant end-expiratory pressure of 20 cm H2O and perfused in situ in the open chest with RPMI 1640 without pH indicator containing 4% Ficoll at a constant flow of 2 ml/min. After 30 min, the ventilation mixture was changed to 2% O2/5% CO2/93% N2 (hypoxic) for 30 min and change in PA pressure was continuously recorded using PO-NE-MAH-P3P Lung Perfusion System software (Gould Instrument System) and the perfusate samples were collected to determine level of NO release as previously reported (Hu et al. Am. J. Physiol. Lung Cell Mol. Physiol. 286: L1066-L1074, 2004). The ventilation gas (hypoxic) was return to normoxic gas, and the lungs were perfused with P3 (20 and 40 μM) in RPMI 1640 or RMPI 1640 for 10 min, after which the hypoxic challenge with 2% O2 was repeated, and the PA pressure response was recorded.

NO release = NO release in perfusates of in situ perfused rat lungs; format: in vivo, Sprague Dawley rats
Experimental: as §1, with “After placement of another PE-90 polyethylene tube connected with a double lumen catheter in the main pulmonary artery (PA), the lung were ventilated with 21% O2/5% CO2/74% N2 (normoxic) at constant end-expiratory pressure of 20 cm H2O and perfused in situ in the open chest with RPMI 1640 without pH indicator containing 4% Ficoll at a constant flow of 2 ml/min.” left out

hypoxic lungs [2] = assay: in vivo vasodilation effect in rats exposed to hypoxia (10% inspired O2) for 2 to 6 weeks; parameters: species or system Sprague Dawley rats; conditions: 10 mg/kg or 20 mg/kg ip once every day
Experimental: Specific pathogen-free Sprague Dawley rats (200-250 g body weight) were exposed to hypoxia (10% inspired O2) in a Coy Laboratory hypoxia chamber equipped with auto purge, airlock, and automated live animal filtration and dehumidification systems for 2 to 6 weeks. Control (normoxia) animals were maintained in similar humidity and temperature environment. Hypoxia exposure was 24 hr/day, except when the chamber was open twice a week for 10-15 min each to clean cages and replenish food and water. All rats were exposed to 12:12-hr light/dark cycle and allowed free access to standard rat food and water. Some rats were administered P3 (+P3) in saline (10 mg/kg or 20 mg/kg, ip) or saline alone (−P3) once every day starting 24 hr prior to initiation of exposure to hypoxia. After 2, 3, and 6 weeks exposure animals were use to measure various parameters including changes in pulmonary artery pressure, lung weight/body weight (LW/BW) ratio, and right vertical/heart weight (RV/HW) ratio.

What does the source list for “KKRFNSISCSSWRRKRKKR (Peptide (P4) used according to the subject invention.)”?
cGMP-specific catalytic activity of PDE (cGMP-specific PDE): significantly reduced; catalytic activity of eNOS (eNOS): significantly enhanced in a dose-dependent manner

What does the source list for `CCCOc1ccccc1-c1nc2nn[nH]c2c(=O)[nH]1` [Zaprinast, reference compound]?
cGMP-specific catalytic activity of PDE (cGMP-specific PDE): loss PDE activity; vasorelaxation of hypoxic mice lungs (hypoxic mice lungs): vasorelaxtion

For “KRFNSISCSSWRRKR (Peptide (P3) used according to the subject invention.)”, which “magnitude of reduction of PAP in hypoxic lung versus normoxic lungs” value (hypoxic lungs [1]; hypoxic compared with normoxic lungs) is on record?
Its value is “much greater”.

And the “pulmonary arterial pressure (PAP)” value (hypoxic lungs [1]; hypoxic lungs)?
The value was “significantly attenuated”.

What about the “attenuation of PAP at 40 μM relative to 20 μM” value (hypoxic lungs [1]; normoxic and hypoxic lungs, 40 μM) of the same compound?
Its value is “comparable”.

And the “pulmonary arterial pressure (PAP)” value (hypoxic lungs [1]; normoxic lungs)?
Its value is “significantly attenuated”.

And the “NO release in perfusates” value (NO release; hypoxic lungs (FIG. 7))?
The value was “increases”.

And the “NO release in perfusates” value (NO release; normoxic lungs (FIG. 7))?
Its value is “increases”.

And the “cGMP-specific catalytic activity of PDE” value (cGMP-specific PDE)?
Its value is “significantly reduced”.

What about the “catalytic activity of eNOS” value (eNOS) of the same compound?
Its value is “significantly enhanced in a dose-dependent manner”.

And the “hypoxia-induced PAP pressure” value (hypoxic lungs [2]; hypoxia (FIG. 11))?
The value was “attenuated”.

What about the “hypoxia-induced RV/HW ratio” value (hypoxic lungs [2]; hypoxia (FIG. 12)) of the same compound?
The value was “attenuated”.

For “WRRKRKES (Peptide (P6) used according to the subject invention.)”, which “cGMP-specific catalytic activity of PDE” value (cGMP-specific PDE) is on record?
The value was “significantly reduced”.

And the “catalytic activity of eNOS” value (eNOS)?
Its value is “significantly enhanced in a dose-dependent manner”.
